System: ADJ/PC6 tumour
Experiment: Antitumour activity against the ADJ/PC6 tumour in mice, intraperitoneal route (LD50, ED90, T.I.)
Type: in vivo
Details: for ED90: Table 1, ADJ/PC6 tumour in mice; for LD50: Table 1, mice
Protocol: The invention will now be described by way of example only. A selection of compounds according to the invention were prepared by the above-described method, and were characterised by elemental analysis and infra red spectroscopy. The compounds were compared against known compounds and against each other for activity against the ADJ/PC6 tumour in mice, when given by the intraperitoneal route and the results are tabulated below.

N.N.[Cl][Pt]([Cl])([Cl])[Cl] [Comparison A]
ED90: 3.4 mg/kg
LD50: 18 mg/kg

NC1CCCCC1.NC1CCCCC1.[Cl][Pt]([Cl])([Cl])[Cl] [Comparison B]
ED90: 10 mg/kg
LD50: 190 mg/kg
